Measured values reported in PubChem BioAssay AID1918957 (Molecular Pharmacology Branch, DTP, NCI, 2023).

System: NCI-H1876 complex spheroid viability
Assay: Anticancer human tumor NCI-H1876 cell line growth inhibition [LSD1];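 also: spheroids exposed to compounds for one week before readout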;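 as to viability, T/C: 100% = DMSO vehicle-treated spheroids so lower means fewer viable cells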
Conditions: for IC50: curve of first compound; for viability, T/C: stronger effect = lower value
Excerpt: Multicellular complex tumor spheroid response to LSD1 Inhibitor Iadademstat in combination with a variety of drugs and investigational agents in selected tumor cell lines
The current study was undertaken to assess response to LSD1 inhibitors in combination with standard-of-care drugs and investigational agents in solid tumor complex spheroid models as well as in the K-562 leukemia. Complex spheroids include a stromal component modeled by human endothelial cells (HUVEC) and fibroblasts modeled by human mesenchymal stem cells (MSCs). The concentration ranges selected for each drug and investigational agent were based upon clinically achievable concentrations if the clinical Cmax of the agent was known.
Compounds. The drugs and investigational agents used in this study are listed on Table 1. All of the agents used, including staurosporine (NSC755774) and gemcitabine (NSC613327), were obtained from the Developmental Therapeutics Program, NCI. FDA-approved anticancer drugs are available from the NCI at http://dtp.nci.nih.gov/branches/dscb/oncology_drugset_explanation.html. Drugs and investigational agents were >95% pure by proton nuclear magnetic resonance (NMR) and liquid chromatography/mass spectrometry (LC/MS). Stock solutions were prepared at 400x in DMSO, stored at -70 degrees C, and diluted in fresh medium prior to their use. The final concentration of DMSO in cell culture wells never exceeded 0.25% (v/v). The FDA-approved anticancer drug set is available from the Developmental Therapeutics Program at https://dtp.cancer.gov/organization/dscb/obtaining/available_plates.htm. All drugs and investigational agents were tested over a range starting from a high concentration at or near the clinical Cmax and decreasing in half-log increments. If the clinical Cmax for an agent had not been determined, the highest concentration tested was 10 microM.
Cell Lines. The patient-derived cancer cell (PDC) lines: 292921-168-R-J2-PDC, K24384-001-R-PDC, and 521955-158-R2-J5-PDC pancreatic carcinomas, 556581-035-R-J1 ovarian carcinoma, 324938-238-R-J1-PDC, 855422-203-R-J1-PDC and 883617-216-R-J1-PDC urothelial bladder carcinomas, 743489-274-T-PDC renal cell carcinoma, 138582-R-J1 Merkel cell tumor, K60290-347-R-J1 and K57222-313-R-J1-PDC glioblastomas, 653999-131-R-J2-PDC, LG0703-F948-PDC, and 349418-098-R-PDC non-small cell lung carcinomas, 885512-296-R-J2-PDC, 171881-019-R-J1-PDC breast carcinomas and 186277-243-T-J2-PDC and 233499-124-R-J2-PDC colon carcinomas were obtained from the NCI Patient-Derived Models Repository (PDMR, https://pdmr.cancer.gov). The established cell lines NCI/ADR-RES (RRID:CVCL_14520 and OVCAR-5 (RRID:CVCL_1628) ovarian carcinomas, 786-O (RRID:CVCL_1051) and A498 (RRID:CVCL_A498) renal cell carcinoma, NCI-H211 (ATCC, cat. CRL-5824; RRID:CVCL_1529), NCI-H196 (ATCC, cat. CRL-5823, RRID:CVCL_1509), SW 1271 (ATCC, cat. CRL-2177, RRID:CVCL_1716) and NCI-H1876 (ATCC, cat. CRL-5902, RRID:CVCL_1503) small cell lung carcinomas, MDA-MB-231 (RRID:CVCL_0062) and MDA-MB-468 (RRID:CVCL_0419)breast carcinomas (10-12). Pooled donor human umbilical vein endothelial cells (HUVEC, Lonza, cat. CC-2519) and human mesenchymal stem cells (hMSC, Lonza, cat. PT-2501) were purchased from Lonza (Walkersville, MD).
Cell Culture. All cells were maintained in an incubator at 37 degrees C and 5% CO2 with 95% humidity. The PDC lines were cultured according to standard operating procedures established by the NCI PDMR (https://pdmr.cancer.gov). Briefly all PDCs were thawed and cultured in Matrigel-coated flasks prepared with a working solution of 1X Ham's F-12 nutrient mix, without supplementation (Invitrogen, Waltham, MA, cat. 11765054), 100 U/mL penicillin-streptomycin (Invitrogen, cat. 15140122), and 2.5% Matrigel (Corning Inc., Corning, NY, cat. 354248) for the first three passages. […]

CC[C@@]1(O)C(=O)OCc2c1cc1n(c2=O)Cc2cc3c(CN(C)C)c(O)ccc3nc2-1 + NC1CC1c1ccc(-c2cccc(O)c2)cc1
IC50 (second compound 0.1 µM): 1.82 nM | IC50 (second compound 0.316 µM): 1.8 nM | IC50 (second compound 1 µM): 1.81 nM | IC50 (second compound 3.16 µM): 1.73 nM | IC50 (second compound 10 µM): 1.69 nM | viability, T/C (second compound 0.1 µM, first compound 0.000316 µM): 102% | viability, T/C (second compound 0.1 µM, first compound 0.001 µM): 87.4% | viability, T/C (second compound 0.1 µM, first compound 0.00316 µM): 15.2% | viability, T/C (second compound 0.1 µM, first compound 0.01 µM): 10.4% | viability, T/C (second compound 0.1 µM, first compound 0.0316 µM): 6.25% | viability, T/C (second compound 0.1 µM, first compound 0.1 µM): 4.62% | viability, T/C (second compound 0.316 µM, first compound 0.000316 µM): 102% | viability, T/C (second compound 0.316 µM, first compound 0.001 µM): 86.2% | viability, T/C (second compound 0.316 µM, first compound 0.00316 µM): 15.2% | viability, T/C (second compound 0.316 µM, first compound 0.01 µM): 9.15% | viability, T/C (second compound 0.316 µM, first compound 0.0316 µM): 6.84% | viability, T/C (second compound 0.316 µM, first compound 0.1 µM): 4.48% | viability, T/C (second compound 1 µM, first compound 0.000316 µM): 104% | viability, T/C (second compound 1 µM, first compound 0.001 µM): 87% | viability, T/C (second compound 1 µM, first compound 0.00316 µM): 15.2% | viability, T/C (second compound 1 µM, first compound 0.01 µM): 9.89% | viability, T/C (second compound 1 µM, first compound 0.0316 µM): 6.39% | viability, T/C (second compound 1 µM, first compound 0.1 µM): 4.42% | viability, T/C (second compound 3.16 µM, first compound 0.000316 µM): 100% | viability, T/C (second compound 3.16 µM, first compound 0.001 µM): 81.5% | viability, T/C (second compound 3.16 µM, first compound 0.00316 µM): 15.6% | viability, T/C (second compound 3.16 µM, first compound 0.01 µM): 10.3% | viability, T/C (second compound 3.16 µM, first compound 0.0316 µM): 7.55% | viability, T/C (second compound 3.16 µM, first compound 0.1 µM): 4.94% | viability, T/C (second compound 10 µM, first compound 0.000316 µM): 97.8% | viability, T/C (second compound 10 µM, first compound 0.001 µM): 76.8% | viability, T/C (second compound 10 µM, first compound 0.00316 µM): 17.8% | viability, T/C (second compound 10 µM, first compound 0.01 µM): 15.2% | viability, T/C (second compound 10 µM, first compound 0.0316 µM): 8.77% | viability, T/C (second compound 10 µM, first compound 0.1 µM): 6.56%

COc1cc(C2c3cc4c(cc3C(OC3OC5COC(C)OC5C(O)C3O)C3COC(=O)C23)OCO4)cc(OC)c1O (stereo not given) + NC1CC1c1ccc(-c2cccc(O)c2)cc1
IC50 (second compound 0.1 µM): 36.6 nM | IC50 (second compound 0.316 µM): 34.6 nM | IC50 (second compound 1 µM): 35.2 nM | IC50 (second compound 3.16 µM): 40.4 nM | IC50 (second compound 10 µM): 35.3 nM | viability, T/C (second compound 0.1 µM, first compound 0.00949 µM): 87.6% | viability, T/C (second compound 0.1 µM, first compound 0.03 µM): 56.3% | viability, T/C (second compound 0.1 µM, first compound 0.0949 µM): 20.1% | viability, T/C (second compound 0.1 µM, first compound 0.3 µM): 11.4% | viability, T/C (second compound 0.1 µM, first compound 0.949 µM): 8.84% | viability, T/C (second compound 0.1 µM, first compound 3 µM): 10.2% | viability, T/C (second compound 0.316 µM, first compound 0.00949 µM): 84.4% | viability, T/C (second compound 0.316 µM, first compound 0.03 µM): 54.4% | viability, T/C (second compound 0.316 µM, first compound 0.0949 µM): 18.6% | viability, T/C (second compound 0.316 µM, first compound 0.3 µM): 10.9% | viability, T/C (second compound 0.316 µM, first compound 0.949 µM): 9.79% | viability, T/C (second compound 0.316 µM, first compound 3 µM): 8.38% | viability, T/C (second compound 1 µM, first compound 0.00949 µM): 92% | viability, T/C (second compound 1 µM, first compound 0.03 µM): 55.2% | viability, T/C (second compound 1 µM, first compound 0.0949 µM): 18% | viability, T/C (second compound 1 µM, first compound 0.3 µM): 11.6% | viability, T/C (second compound 1 µM, first compound 0.949 µM): 9.23% | viability, T/C (second compound 1 µM, first compound 3 µM): 8.55% | viability, T/C (second compound 3.16 µM, first compound 0.00949 µM): 93.9% | viability, T/C (second compound 3.16 µM, first compound 0.03 µM): 60.5% | viability, T/C (second compound 3.16 µM, first compound 0.0949 µM): 19.9% | viability, T/C (second compound 3.16 µM, first compound 0.3 µM): 13% | viability, T/C (second compound 3.16 µM, first compound 0.949 µM): 9% | viability, T/C (second compound 3.16 µM, first compound 3 µM): 8.78% | viability, T/C (second compound 10 µM, first compound 0.00949 µM): 85.3% | viability, T/C (second compound 10 µM, first compound 0.03 µM): 54.9% | viability, T/C (second compound 10 µM, first compound 0.0949 µM): 20.7% | viability, T/C (second compound 10 µM, first compound 0.3 µM): 13.8% | viability, T/C (second compound 10 µM, first compound 0.949 µM): 11% | viability, T/C (second compound 10 µM, first compound 3 µM): 9.82%
